From patent US5567693A, “Method for inhibiting angiogenesis, proliferation of endothelial or tumor cells and tumor growth” (American Cyanamid Company, priority 1994, dated 1996)
Several values for one entry are separate records, joined by “and”; a condition that tells them apart may be missing. Equal entries are not always repeated. Structures can show the parent of a compound that is named as a salt. Where two headings read alike, the source gives them in different places.

Key:
angiogenesis = conditions: Brem et al, cited from earlier work; for inhibition of angiogenesis: WO92/12717
[1] = test system: Adult Bovine Aortic Endothelial (ABAE) cell line; experiment: Antiproliferative activity in ABAE cell line, PROTOCOL 2; assay type: cell-based; conditions: PROTOCOL 2, 48 hours
Experimental: (§1) The antiproliferative activity of the compounds of Formula I in an Adult Bovine Aortic Endothelial (ABAE) cell line and in Human Tumor cell lines is evaluated in three similar assays that measure growth inhibition. The assays are identified as follows:
(§2) PROTOCOL 1,2,and 3 are described in greater detail hereinbelow. In general, according to PROTOCOLS 1 and 2, the target ABAE and/or Human Tumor cells are exposed to the compounds of Formula I for 48 hours. PROTOCOL 3 exposes ABAE cells to the compounds for 4 days. A detailed description of the protocols is as follows:
Antiproliferative Activity in Human Tumor and Adult Bovine Aortic Endothelial Cell Lines (ABAE)
(§3) The antiproliferative activity of the compounds of Formula I is evaluated in a panel comprised of human tumor cell lines and an adult bovine aortic cell line (ABAE) as listed in PROTOCOL 1. This assay is a modification of PROTOCOL 1. The modifications include:
(§4) 1) each concentration for each compound is tested in a single well;
(§5) 2) compounds are tested at 20, 4, 0.8, 0.16 microgram/ml and additionally in some experiments at 100 and 0.32 microgram/ml;
(§6) 3) samples are pipetted into a 96-well plate for each of the cell lines by a Beckman Biomek 1000 SL robot;
(§7) 4) after fixing with TCA each well is washed with 0.35 ml distilled water twice, not five times;
(§8) 5) after staining with sulforhodamine B each well is washed 3 times, not five times;
(§9) 6) the growth inhibition (I) as % of control, is calculated using the RS-1 data package (BBN Software), for every concentration of drug, as follows: [formula] wherein: T is optical density measurement for treated cells after 48 hours;
(§10) C is optical density measurement for untreated cells after 48 hours;
(§11) 7) IC50 of growth inhibition is determined graphically from dose response curves, as is known in the art.
Table 1 presents the results depicting the antiproliferative activity of the compounds of Formula I against an Adult Bovine Aortic Endothelial cell line (ABAE), as evaluated by PROTOCOL 1 and 2. The results are presented in terms of IC50 and are as follows.

A2780/DDP = experiment: Antiproliferative activity in human tumor cell lines: A2780/DDP (ovarian); assay type: cell-based; conditions: PROTOCOL 1 and PROTOCOL 2, 48 hours
Experimental: (§12) The assays are identified as follows:
as §2
(§13) The antiproliferative activity of the compounds of Formula I of the present invention is evaluated in a panel comprised of human tumor cell lines and an adult bovine aortic endothelial cell line (ABAE). The human tumor cell lines are from
(§14) Cultures are renewed after 20 passages with cells from a fresh stock of batch-frozen early passage cells. Cell lines are routinely checked for mycoplasma contamination (Genprobe). In a laminar flow hood, cells (1-5×10^4) are plated into 96-well microtiter plates in a volume of 0.1 ml/well with a bulk microtiter dispenser (Denley). […] Compounds are added using a Tomtec dispenser which simultaneously dispenses from one 96-well plate, containing the drug dilutions, to the plates containing the cells. After two days of continuous drug exposure, 50% cold trichloroacetic acid (TCA) is added to 10% final concentration to fix the cells, and after 60 minutes at 4° C., the TCA is aspirated and the plates are washed 5 times with deionized water using a microtiter plate washer. […] A 0.4% solution of the dye, sulforhodamine B, in […] is added to the plates, and the plates are washed 5 times with 1% glacial acetic acid using the automatic plate washed. The bound stain is solubilized with 0.1 ml of 10 mM Tris base. The optical densities are read from an automatic spectrophotometric plate reader (Dynatech) directly to a main frame computer (VAX 8600).
(§15) Positive controls, that include standard chemotherapeutic drugs (i.e., Adriamycin, Cisplatin, etc.), are included in every experiment.
(§16) Background optical density measurements (complete media-cells, and complete media+drug-cells) are automatically subtracted from the appropriate control and test wells. Mean values and standard errors are determined from duplicate wells. A measure is also made of the optical density at time when the drugs are added. The number of cells after treatment (P), as % of control, is calculated for every concentration of drug, as follows: [formula] wherein: T is optical density measurement for treated cells after 48 hours;
as §10
(§17) Co is optical density measurement for cells at the time of drug addition.
(§18) IC50 of growth inhibition is calculated from the sets of P values using the RS-1 data package (BBN Software).
as §3, §4, §5, §6, §7, §8, §9, §11

MIP = experiment: Antiproliferative activity in human tumor cell lines: MIP (colon); assay type: cell-based; conditions: PROTOCOL 1 and PROTOCOL 2, 48 hours
Experimental: as §1, §2, §13
(§19) All cell lines are maintained in log phase in RPMI 1640 media, supplemented with 5% fetal calf serum, penicillin/streptomycin and 2 mM L-glutamine. Cultures are renewed after 20 passages with cells from a fresh stock of batch-frozen early passage cells. Cell lines are routinely checked for mycoplasma contamination (Genprobe). In a laminar flow hood, cells (1-5×10^4) are plated into 96-well microtiter plates in a volume of 0.1 ml/well with a bulk microtiter dispenser (Denley). […] At this concentration, dimethylsulfoxide has no effect on cell growth. Compounds are added using a Tomtec dispenser which simultaneously dispenses from one 96-well plate, containing the drug dilutions, to the plates containing the cells. After two days of continuous drug exposure, 50% cold trichloroacetic acid (TCA) is added to 10% final concentration to fix the cells, and after 60 minutes at 4° C., the TCA is aspirated and the plates are washed 5 times with deionized water using a microtiter plate washer. The number of cells on the plate are quantitated using a protein dye-binding assay (Monks et al., 1991). A 0.4% solution of the dye, sulforhodamine B, in glacial acetic acid is added to the plates, and the plates are washed 5 times with 1% glacial acetic acid using the automatic plate washed. The bound stain is solubilized with 0.1 ml of 10 mM Tris base. The optical densities are read from an automatic spectrophotometric plate reader (Dynatech) directly to a main frame computer (VAX 8600).
as §15, §16, §10, §17, §18, §3, §4, §5, §6, §7
(§20) 5) after staining with sulforhodamine B each well is washed 3 times, not five times; […]

CACO2 = experiment: Antiproliferative activity in human tumor cell lines: CACO2 (colon); assay type: cell-based; conditions: CACO2 colon tumor, PROTOCOL 1 and PROTOCOL 2, 48 hours
Experimental: as §1, §2, §13, §19, §15, §16, §10, §17, §18, §3, §4, §5, §6, §7, §20

HTB 161 = experiment: Antiproliferative activity in human tumor cell lines: HTB 161 (ovarian); assay type: cell-based; conditions: HTB 161 ovarian tumor, PROTOCOL 1 and PROTOCOL 2, 48 hours
Experimental: as §12, §2, §13, §14, §15, §16, §10, §17, §18, §3, §4, §5, §6, §7, §8, §9, §11

SW620 = experiment: Antiproliferative activity in human tumor cell lines: SW620 (colon); assay type: cell-based; conditions: SW-620, SW620 colon tumor, PROTOCOL 1 and PROTOCOL 2, 48 hours, read-out: IC50
Experimental: as §1, §2, §13, §19, §15, §16, §10, §17, §18, §3, §4, §5, §6, §7, §20

Human Tumor cell lines = experiment: Antiproliferative activity in the panel of human tumor cell lines; assay type: cell-based; conditions: Homo sapiens; average over the 6 tumor cell lines
Experimental: as §1, §2, §13, §19, §15, §16, §10, §17, §18, §3, §4, §5, §6, §7, §20

A2780S = experiment: Antiproliferative activity in human tumor cell lines: A2780S (ovarian); assay type: cell-based; conditions: PROTOCOL 1 and PROTOCOL 2, 48 hours
Experimental: as §12, §2, §13, §14, §15, §16, §10, §17, §18, §3, §4, §5, §6, §7, §8, §9, §11

[2] = test system: Adult Bovine Aortic Endothelial (ABAE) cell line; experiment: Antiproliferative activity in ABAE cell line, PROTOCOL 3 (4 day assay); assay type: cell-based; conditions: 4 day assay (PROTOCOL 3)
Experimental: as §1, §2
Antiproliferative Activity in Adult Bovine Aortic Endothelial (ABAE) Cell Line
ABAE cells are grown in DMEMmedia (Mediatech, Washington, D.C.) supplemented with 10% calf serum (Hyclone). ABAE cells are plated in 24-well dishes at 8,000 cells/well, followed by the addition of increasing concentrations of 7-(hydrogen or di(C1 -C4)alkylamino)-8-halogen-9-(substituted)-6-demethyl-6-deoxytetracycline. After four days, the cells are detached and counted. […] The growth inhibition (I) as % of control is calculated as follows: [formula] wherein: Nc is the number of cells in untreated wells;
Nt is the number of cells in treated wells;
No is the number of plated cells.
IC50 of growth inhibition is determined from the sets of I values plotted by Kaleidograph software (Abelbeck Software).
In addition FIG. 1, presents the dose response curve for the compound of Example 10 for the above ABAE cell line obtained by using PROTOCOL 3.

tumor growth = conditions: in conjunction with cancer chemotherapy or radiation therapy; Teicher et al; cited from earlier work
[3] = Homo sapiens, Caco-2, read-out: IC50

| Compound | inhibition of angiogenesis (angiogenesis) | IC50 ([1]; Bos taurus, read-out: IC50) [µg/mL] | IC50 (A2780/DDP) [µg/mL] | IC50 (MIP) [µg/mL] | IC50 (CACO2; [3]) [µg/mL] | IC50 (HTB 161) [µg/mL] | IC50 (SW620) [µg/mL] | IC50 (Human Tumor cell lines) [µg/mL] | IC50 (A2780S) [µg/mL] | further results |
| --- | --- | --- | --- | --- | --- | --- | --- | --- | --- | --- |
| CN(C)[C@@H]1C(O)=C(C(=O)NCNCCCC[C@H](N)C(=O)O)C(=O)[C@@]2(O)C(O)=C3C(=O)c4c(O)cccc4[C@@](C)(O)[C@H]3C[C@@H]12 [Lymecycline] | useful as inhibitors of angiogenesis | – | – | – | – | – | – | – | – | – |
| CCC(C(=O)Nc1c(Cl)cc2c(c1O)C(=O)C1=C(O)[C@]3(O)C(=O)C(C(N)=O)=C(O)[C@@H](N(C)C)C3CC1C2)N(C)C (stereo partly shown) [Example 18, dihydrochloride] | – | 16 | 3 | 4 | 11 | 3 | 3 | 4.8 | – | – |
| CC(C(=O)Nc1c(Cl)cc2c(c1O)C(=O)C1=C(O)[C@]3(O)C(=O)C(C(N)=O)=C(O)[C@@H](N(C)C)C3CC1C2)N1CCCC1 (stereo partly drawn) [Example 13, 7S-(7α,10aα)]-N-[9-(Aminocarbonyl)-3-chloro-7-(dimethylamino)-5,5a,6,6a,7,10,10a,12-octahydro-1,8,10a,11-tetrahydroxy-10,12-dioxo-2-naphthacenyl]-α-methyl-1-pyrrolidineacetamide dihydrochloride] | – | 3 | 1 | – | 3 | 1 | 1 | 1.3 | 1 | – |
| CN(C)[C@@H]1C(O)=C(C(N)=O)C(=O)[C@@]2(O)C(O)=C3C(=O)c4c(O)ccc(Cl)c4[C@@](C)(O)[C@H]3C[C@@H]12 [Chlortetracycline] | useful as inhibitors of angiogenesis | – | – | – | – | – | – | – | – | – |
| [4S-(4α,12aα)]-8 -Chloro-4-(dimethylamino)-9-[[(2-(dimethylamino) -1-oxopropyl]amino]-1,4,4a,5,5a,6,11,12a-octahydro-3,10,12,12a-tetrahydroxy-1,11-dioxo-9-[[[(1-methylethyl)amino]acetyl]amino]-2-naphthacenecarboxamide dihydrochloride [Example 16] | – | – | – | – | – | – | – | – | – | IC50 [1]: 3 µg/mL; IC50 (CACO2; dihydrochloride): 4.0 µg/mL and 8.0 µg/mL |
| CCC(C(=O)Nc1c(Cl)cc2c(c1O)C(=O)C1=C(O)[C@]3(O)C(=O)C(C(N)=O)=C(O)[C@@H](N(C)C)C3CC1C2)N1CCCC1 (stereo partly shown) [Example 19, dihydrochloride] | – | 4 | 1 | 3 | 4 | 2 | 3 | 2.3 | 1 | – |
| CN(C)[C@@H]1C(O)=C(C(N)=O)C(=O)[C@@]2(O)C(O)=C3C(=O)c4c(O)ccc(Cl)c4[C@@H](O)[C@H]3C[C@@H]12 [Demeclocycline] | useful as inhibitors of angiogenesis | – | – | – | – | – | – | – | – | – |
| CC(C)NCC(=O)Nc1c(Cl)cc2c(c1O)C(=O)C1=C(O)[C@]3(O)C(=O)C(C(N)=O)=C(O)[C@@H](N(C)C)C3CC1C2 (stereo partly drawn) [Example 15, [4S-(4α,12aα)]-8-Chloro-4-(dimethylamino)-1,4,4a,5,5a,6,11,12a,-octahydro-3,10,12,12a-tetrahydroxy-1,11-dioxo-9-[[[(1-methylethyl)amino]acetyl]amino]-2-naphthacenecarboxamide dihydrochloride] | – | < 1 | – | – | – | – | – | – | – | – |
| CN(C)c1ccc(O)c2c1C[C@H]1C[C@H]3[C@H](N(C)C)C(O)=C(C(N)=O)C(=O)[C@@]3(O)C(O)=C1C2=O [Minocycline] | useful as inhibitors of angiogenesis | – | – | – | – | – | – | – | – | activity upon incubation with cells [2]: loosing its activity upon incubation with cells; inhibition of angiogenesis compared with combination therapy of heparin and cortisone (angiogenesis; Cancer Research 51, 672-675): inhibits angiogenesis to an extent comparable to that of the combination therapy of heparin and cortisone; number of metastases (tumor growth): the number of metastases is reduced; tumor growth (tumor growth): tumor growth is decreased |
| CC(C(=O)Nc1c(Cl)cc2c(c1O)C(=O)C1=C(O)[C@]3(O)C(=O)C(C(N)=O)=C(O)[C@@H](N(C)C)C3CC1C2)N1CCCCC1 (stereo partly drawn) [Example 14, 7S-(7α, 10aα)]-N-[9-(Aminocarbonyl)-3-chloro-7-(dimethylamino)-5,5a,6,6a,7,10,10a,12-octahydro-1,8,10a,11-tetrahydroxy-10,12-dioxo-2-naphthacenyl]-α-methyl-1-piperidineacetamide dihydrochloride] | – | < 0.8 | < 0.16 | < 0.16 | 0.7 | < 0.16 | < 0.16 | – | < 0.16 | – |
